Measurements: patent US20160256460A1, “ACTIVATORS OR STIMULATORS OF SOLUBLE GUANYLATE CYCLASE FOR USE IN TREATING CHRONIC FATIGUE SYNDROME” (BERGEN TEKNOLOGIOVERFØRING AS, priority 2013, published 2016)

Tested on: ME/CFS patient
Assay: Case report: oral riociguate (Adempas) in one ME/CFS patient
Type: in vivo, human
Procedure: It is understood that the examples illustrate the invention further without limiting the same. The patient is a person. They have had ME/CFS for 10 years, starting after a Giardia Lamblia infection. They have a disease severity varying between moderate and mild, but with moderate severity the last month prior to start of Riociguat. They have a typical ME/CFS and fulfils Canadian criteria. […] They started with only 0.5 mg once daily, gradually increasing to 0.5 two times daily after a few days and again to 0.5 mg three times daily on day six. […] The dose was increased to 1 mg+0.5 mg+1 mg starting from day seven and, in addition, starting from day nine increased to 1 mg three times daily. […] They told the clinicians of the improvement of their ME/CFS symptoms. They experienced this improvement to be significant and not within the usual range of symptom variation of their ME/CFS disease the last months.

## COC(=O)N(C)c1c(N)nc(-c2nn(Cc3ccccc3F)c3ncccc23)nc1N [Riociguat, Methyl 4,6-diamino-2-[1-(2-fluorobenzyl)-1H-pyrazolo[3,4-b]pyridine-3-yl]-5-pyrimidinyl(methyl)carbamate]
After the first six days, at a dose of 2.5 mg per day
  ME/CFS symptom change reported by the patient: more energy and less fatigue, less brain fog with an improved concentration ability, less hypersensitivity to sound and light, and less feeling of sore throat
person, moderate ME/CFS, oral 0.5 mg once daily increased to 0.5 mg three times daily on day six, noticed from day six, the next three days
  benefit on the ME/CFS symptoms: benefit on the ME/CFS symptoms
Same patient, dose increased up to 1 mg three times daily from day nine
  side effects: no clear side effects
